Series [1] is described as follows: Cytotoxicity in ATH8 cells (total cell number and viability, trypan-blue dye exclusion). It counts as cell-based. To be noted: human; uninfected ATH8 cells; read-out: 50% Inhibitory Concentration, Cytotoxicity: ATH8. The method, then:
The human OKT4^+ T-cell clone, ATH8, was obtained from Dr. Samuel Broder's laboratory (NCI) through Dr. Hiroaki Mitsuya. These cells are propagated in RPMI 1640 medium supplemented with 4 mM glutamine, 15% heat-inactivated fetal bovine serum, antibiotics (50 units of penicillin and 50 μg of streptomycin per ml), and 50 units of recombinant-derived human interleukin-2 (ala-125; AMGen Biologicals) per ml. The clone H9 cell lines, an OKT4^+ human T-cell line which is permissive for HIV replication but largely resistant to virus-induced CPE, H9 cells productively infected with the HTLV-IIIB strain of HIV, and H9 cells productively infected with the RF-II Haitian variant of HIV have been obtained from Dr. Robert Gallo's laboratory (NCI) through Dr. Howard Streicher. […]
(§1) ATH8 cells were used as the primary targeted cells in the HIV-induced CPE-inhibition assay. […] These compounds were evaluated at seven half-log dilutions. […] On day 10 post-infection aliquots were taken from individual wells and the total cell number and cell viability (based on trypan-blue dye exclusion) determined. […]
Dose-response relationships were constructed by linearly regressing the percent inhibition of parameters derived in the preceding sections against log drug concentrations. 50% inhibitory (I50) concentrations were calculated from the regression lines. […]

Series [2] is described as follows: Cytotoxicity in KB cells (inhibition of DNA, RNA and protein synthesis). It counts as cell-based. The note with it: human, average of inhibition of DNA, read-out: 50% Inhibitory Concentration, Cytotoxicity: KB. The method, then: (§2) KB cells, an established human cell line derived from an epidermoid oral carcinoma, were routinely grown in minimal essential medium (MEM) with Hanks salts [MEM(H)] supplemented with 5% fetal bovine serum. African green monkey kidney (BSC-1) cells and diploid human foreskin fibroblasts (HFF cells) were grown in MEM with Earle's salts [MEM(E)] supplemented with 10% fetal bovine serum. Cells were passaged according to conventional procedures as described in Shipman, C., Jr.; Smith, S. H.; Carlson, R. H.; Drach, J. C. Antimicrob. Agents Chemother., 1976, 9, 120. The plaque-purified isolate, PO, of the Towne strain of HCMV was used in all experiments and was a gift of Dr. Mark Stinski, University of Iowa. The S-148 strain of HSV-1 was provided by Dr. T. W. Schafer of Schering Corp. Stock preparations of HCMV and HSV-1 were prepared and titered as described in Turk, S. R.; Shipman, C., Jr.; Nassari, R.; Genzlinger, G.; Krawczyk, S. H.; Townsend, L. B.; Drach, J. C. Antimicrob. Agents Chemother., 1987, 31, 544.
(§3) Two basic tests for cellular cytotoxicity were routinely employed for compounds examined in antiviral assays. Cytotoxicity produced in HFF and BSC-1 cells was estimated by visual scoring of cells not affected by virus infection in the plaque reduction assays described above. Cytopathology was estimated at 35- and 60-fold magnification and scored on a zero to four plus basis on the day of staining for plaque enumeration. Cytotoxicity in KB cells was determined by measuring the effects of compounds on the incorporation of radioactive precursors into DNA, RNA and protein as described in Turk, S. R.; Shipman, C., Jr.; Nassari, R.; Genzlinger, G.; Krawczyk, S. H.; Townsend, L. B.; Drach, J. C. Antimicrob. Agents Chemother., 1987, 31, 544.
(§4) Dose-response relationships were constructed by linearly regressing the percent inhibition of parameters derived in the preceding sections against log drug concentrations. 50% inhibitory (I50) concentrations were calculated from the regression lines. The three I50 concentrations for inhibition of DNA, RNA and protein synthesis were averaged to give the values reported in Table I for KB cell cytotoxicity. Samples containing positive controls (acyclovir, ganciclovir, or vidarabine) were used in all assays. Results from sets of assays were rejected if inhibition by the positive control deviated from its mean response by more than 1.5 standard deviations.
^c Average percent inhibition of DNA, RNA and protein synthesis
determined in KB cells as described in the text.

Series [3] can be described thus: Visual cytotoxicity in uninfected BSC-1 cells. It counts as cell-based. The note with it: african green monkey, visual cytotoxicity scored on uninfected BSC cells at time of HSV1 plaque determination, read-out: 50% Inhibitory Concentration, Cytotoxicity: BSC. The method, then:
as §2, §3, §4
(§5) ^b Visual cytotoxicity scored on uninfected HFF or BSC cells at time
(§6) of HCMV or HSV1 plaque determination.

The subject of series [4] is Human Cytomegalovirus (HCMV). The experiment in a line: HCMV plaque reduction in HFF cells. The format is cell-based, HCMV (Towne strain, isolate PO); human foreskin fibroblasts. The note with it: read-out: 50% Inhibitory Concentration, Virus Tested: HCMV. As to the method:
as §2
(§7) HCMV plaque reduction experiments were performed using monolayer cultures of HFF cells by a procedure similar to that referenced above for titration of HCMV, with the exceptions that the virus inoculum (0.2 ml) contained approximately 50 PFU of HCMV and the compounds to be assayed were dissolved in the overlay medium. HSV-1 plaque reduction experiments were performed using monolayer cultures of BSC-1 cells. The assay was performed exactly as referenced above for HSV-1 titration assays except that the 0.2 ml of virus suspension contained approximately 100 PFU of HSV-1 and the compounds to be tested were dissolved in the overlay medium.
as §4

Series [5] can be described thus: Visual cytotoxicity in uninfected HFF cells. To be noted: human; visual cytotoxicity scored on uninfected HFF cells at time of HCMV plaque determination; read-out: 50% Inhibitory Concentration, Cytotoxicity: HFF. The format is cell-based. The method, then: as §2, §3, §4, §5, §6
In series [6] the test system is Human Immunodeficiency Virus Type 1 (HIV-1). The experiment in a line: CPE-inhibition assay with HIV-1 in ATH8 cells. It counts as cell-based. The note with it: Human immunodeficiency virus 1, ATH-8, 240 h, read-out: 50% Inhibitory Concentration, Virus Tested: HIV. As to the method:
The human OKT4^+ T-cell clone, ATH8, was obtained from Dr. Samuel Broder's laboratory (NCI) through Dr. Hiroaki Mitsuya. These cells are propagated in RPMI 1640 medium supplemented with 4 mM glutamine, 15% heat-inactivated fetal bovine serum, antibiotics (50 units of penicillin and 50 μg of streptomycin per ml), and 50 units of recombinant-derived human interleukin-2 (ala-125; AMGen Biologicals) per ml. […]
The testing of compounds for antiviral activity employed the modified CPE-inhibition assay described in Mitsuya, H.; Weinhold, K. J.; Furman, P. A.; St. Clair, M. H.; Lehrman, S. N.; Gallo, R. C.; Bolognesi, D.; Barry, D. W.; Broder, S. Proc. Natl. Acad. Sci. USA, (1985) 82, 7096 and Mitsuya, H.; Broder, S. Proc. Natl. Acad. Sci. USA, 1986, 83 1911. […] The protective effect of test compounds was assessed by adding them at varying concentrations to the cultured cells at the time of virus infection, then monitoring the status of the cell pellet.
as §1

For series [7], the system named is Herpes Virus Type 1 (HSV-1). The experiment in a line: HSV-1 plaque reduction in BSC-1 cells. It counts as cell-based. The note with it: read-out: 50% Inhibitory Concentration, Virus Tested: HSV-1. The method, then: as §2, §7, §4
^a In experiments with HSV1 both the HF and 148 strains were used.

The mark [8] stands for this setting: Human alphaherpesvirus 1, BSC-1, in Chlorocebus sabaeus.
[9] abbreviates: Human betaherpesvirus 5, plaque reduction, HFF cells.
The mark [10] stands for this setting: Human alphaherpesvirus 1, in Chlorocebus sabaeus, plaque reduction, BSC-1 cells, both the HF and 148 strains were used.

Where two headings read alike, the source gives them in different places.

Regarding `NC(=O)c1cn([C@H]2CC[C@@H](CO)O2)c2ncnc(N)c12` [Dideosysangivamycin, 4-amino-7-(2',3'-dideoxy-β-D-ribofuranosyl)pyrrolo[2,3-d]-pyrimidine-5-carboxamide], the CC50 in series [1] was 100 µM; in series [2], over 100 µM; in series [3] it was over 100 µM; in series [5], over 100 µM. Moreover, the IC50 in series [4] (Human betaherpesvirus 5, HFF) is over 100 µM; in series [6], 3 µM; in series [7] (setting [8]), over 100 µM.
In the case of `NC(=O)c1cn([C@H]2C=C[C@@H](CO)O2)c2ncnc(N)c12` [Dideoxydidehydrosangivamycin, 4-amino-7-(2',3'-dideoxy-2',3'-didehydro-β-D-ribofuranosyl)-pyrrolo-[2,3-d]pyrimidine-5-carboxamide], the CC50 was 54 µM in series [2], over 100 µM in series [3] and over 100 µM in series [5]. Besides, the IC50 in series [4] (Human betaherpesvirus 5, HFF) is over 100 µM; in series [7] (setting [8]) it was over 100 µM.
In the case of `N#Cc1cn([C@H]2C=C[C@@H](CO)O2)c2ncnc(N)c12` [Dideoxydidehydrotoyocamycin, 4-amino-5-cyano-7-(2',3'-dideoxy-2',3'-didehydro-β-D-glycero-pentofuranosyl)-pyrrolo[2,3-d]pyrimidine], the CC50 in series [2], in series [3] and in series [5] was over 100 µM throughout. For the same compound, the results for the IC50 in series [4] (setting [9]) and in series [7] (setting [10]) were 5.1 µM and 41 µM, respectively.
As to `Nc1ncnc2c1ccn2[C@H]1C=C[C@@H](CO)O1` [Dideoxydidehydrotubercidin, 4-amino-7(2',3'-dideoxy-2',3'-didehydro-β-ribofuranosyl)-pyrrolo[2,3-d] pyrimidine], the CC50 in series [3] and in series [5] was over 100 µM each time. For the same compound, the IC50 in series [4] (setting [9]) and in series [7] (setting [10]) was over 100 µM in each case.
Regarding `N#Cc1cn([C@H]2CC[C@@H](CO)O2)c2ncnc(N)c12` [Dideoxytoyocamycin, 4-amino-5-cyano-7-(2',3'-dideoxy-β-D-ribofuranosyl)-pyrrolo-[2,3-d]-pyrimidine], the CC50 in series [1] is 100 µM; in series [2], 54 µM; in series [3] it was over 100 µM; in series [5], over 100 µM. Also, the IC50 in series [4] (setting [9]) turned out to be 18 µM; in series [6] (ATH8 cells, day 10 post-infection) it was 3 µM; in series [7] (setting [10]), 21 µM.
Turning to `Nc1ncnc2c1ccn2[C@H]1CC[C@@H](CO)O1` [Dideoxytubercidin, 4-amino-7-(2',3'-dideoxy-β-D-ribofuranosyl)pyrrolo[2,3-d]-pyrimidine], the CC50 in series [3] and in series [5] was over 100 µM throughout. In addition, the IC50 in series [4] (setting [9]) and in series [7] (setting [10]) was over 100 µM throughout.
